# Source: US20240299504A1, “COMPOSITIONS AND METHODS FOR TREATING ALZHEIMERS DISEASE” (priority 2023, published 2024)
# What was measured:
# Assay type in all cases: in vivo, mouse
# PYD (pyridinoline) = test: Serum PYD ELISA (bone resorption marker); settings: 6-MO female 5×FAD mice, compared to WT controls; 50 μg/Kg s.c. intermittent
# Experimental: (§1) Parathyroid hormone (human) was purchased from TOCRIS Bioscience (Cat #3011/1, Abingdon, United Kingdom). WT or 5×FAD mice (both male and female) were treated with PTH1-34 intermittently [once daily injection of hPTH1-34 (50 μg/Kg) or vehicle (0.9% sodium chloride) (as a control) by subcutaneous injection, starting at 2-MO, 5 days per week] as described previously. Mice were then subjected to behavioral tests and sacrificed for examinations of their bone and brain phenotypes at the indicated ages.
# Submandibular blood collection was performed in anesthetized mice. A swift lancing motion is used to puncture the vessel. Blood sample (up to 200 μl) was collected with a pipette or other collection tube, allowed to stand at room temperature for 30 min and centrifuged for 15 min at 3000 rpm. Supernatant serum was aliquot and frozen at −80° C. until use. Mouse serum levels of osteocalcin (a marker for bone formation), PYD (pyridinoline, a marker for bone resorption), and PTH were measured using mouse osteocalcin Elisa kit (QUIDEL Corporation), METRA Serum PYD EIA kit (QUIDEL Corporation, San Diego, CA, USA), and mouse PTH Elisa kit (MyBioSource), respectively, following the manufacturers' instruction.
# [1] = system: ATG9A+ dystrophic neurites; test: Co-immunostaining ThioS/ATG9A, plaque-associated dystrophic neurites; settings: cortex and hippocampus, ~6 MO 5×FAD female mice vs Veh
# Experimental: as §1
# DAPI was used for nucleus staining.
# p16Ink4a and p53 = test: Senescence markers in hippocampus (RT-PCR, Western blot)
# Experimental: as §1
# Total proteins from cortex, hippocampus, or cultured astrocytes were extracted using RIPA lysis buffer [50 mM Tris-HCl (pH7.5), 150 mM NaCl, 1 mM EDTA, 1% v/v NP-40, 0.1% SDS, 1% sodium deoxycholate supplemented with Protease Inhibitor Cocktail (Roche) and 1 mM PMSF] and analyzed by Western Blot. Lysates were cleared by centrifugation at 12,000 g for 15 min at 4° C. to remove debris and to obtain homogenates. Homogenates samples were resolved by SDS-PAGE (8˜15%) gels and then electroblotted onto nitrocellulose membranes (Cat #1620112, Bio-Rad Laboratories). […] After washing with TBST 3 times, antibody reactivity was detected by the Enhanced Chemiluminescence (ECL) detection system (Amersham Biosciences). Band density of proteins was normalized in relation to loading control and analyzed using NIH ImageJ software. […]
# [2] = system: proinflammatory cytokines and chemokines; test: qRT-PCR of proinflammatory cytokines and chemokines in cortex and hippocampus; settings: 6-MO 5×FAD female mice
# Experimental: as §1
# Total RNA was extracted from cortex, hippocampus, or cultured astrocytes using a TRizol reagent (Invitrogen, cat #15596-026, Carlsbad, CA, USA) as previously described. Purified RNA (1-5 μg) was used for cDNA synthesis with the Revert Aid First Strand cDNA Synthesis Kit (Thermo Scientific, cat #K1621, Waltham, MA, USA). The cDNA products were subjected to subsequent quantitative PCR (qPCR) using the QuantiFast SYBR Green PCR Kit (QIA-GEN, cat #204057, Hilden, Germany) with a qPCR System (StepOne Plus). Each sample was repeated at least 3 times, and the mRNA level was normalized to GAPDH using the 2^−ΔΔCt method.
# 5×FAD mice = test: Micro-computed tomography (μCT) of femurs, bone phenotype; settings: femur μCT, 6-MO female 5×FAD vs WT mice; hPTH1-34 50 μg/Kg s.c. once daily, 5 days per week from 2-MO
# Experimental: as §1
# Femurs of WT and 5×FAD female mouse with or without PTH1-34 treatment were detached and fixed overnight in 10% formalin and stored in PBS for further characterization by microCT (μCT). The excised femurs were placed vertically in a 12-mm-diameter scanning holder and scanned using the Scanco μCT40 (Scanco Medical AG). Settings parameters are adjusted as previously described: […], 55 kVp, and 145 μA with an integration time of 200 ms. For the cortical analysis, the bone was scanned at the midshaft of the bone for a scan of 25 slices, and the threshold for cortical bone was set at 329. The 3D reconstruction was performed using all outlined slices and analyzed by μCT evaluation program (v.6.5-2; Scanco Medical). Data were obtained on bone volume (BV), total volume (TV), BV/TV, bone density, and cortical thickness for cortical bone. […]
smiles,measurement,setting,value
CC[C@H](C)[C@H](NC(=O)[C@H](CCC(=O)O)NC(=O)[C@H](CO)NC(=O)[C@@H](NC(=O)[C@@H](N)CO)C(C)C)C(=O)N[C@@H](CCC(N)=O)C(=O)N[C@@H](CC(C)C)C(=O)N[C@@H](CCSC)C(=O)N[C@@H](Cc1cnc[nH]1)C(=O)N[C@@H](CC(N)=O)C(=O)N[C@@H](CC(C)C)C(=O)NCC(=O)N[C@@H](CCCCN)C(=O)N[C@@H](Cc1cnc[nH]1)C(=O)N[C@@H](CC(C)C)C(=O)N[C@@H](CC(N)=O)C(=O)N[C@@H](CO)C(=O)N[C@@H](CCSC)C(=O)N[C@@H](CCC(=O)O)C(=O)N[C@@H](CCCN=C(N)N)C(=O)N[C@H](C(=O)N[C@@H](CCC(=O)O)C(=O)N[C@@H](Cc1c[nH]c2ccccc12)C(=O)N[C@@H](CC(C)C)C(=O)N[C@@H](CCCN=C(N)N)C(=O)N[C@@H](CCCCN)C(=O)N[C@@H](CCCCN)C(=O)N[C@@H](CC(C)C)C(=O)N[C@@H](CCC(N)=O)C(=O)N[C@@H](CC(=O)O)C(=O)N[C@H](C(=O)N[C@@H](Cc1cnc[nH]1)C(=O)N[C@@H](CC(N)=O)C(=O)N[C@@H](Cc1ccccc1)C(=O)O)C(C)C)C(C)C [PTH1-34],serum PYD levels,PYD (pyridinoline),little to no effect on serum PYD levels in 5×FAD mice
same,ATG9A+ dystrophic neurites,[1],smaller and less dense ATG9A+ dystrophic neurites
same,p53 protein (Western blot),"p16Ink4a and p53; hippocampus homogenates, 6-MO female 5×FAD mice",reduced
same,p16Ink4a and p53 transcripts (RT-PCR),"p16Ink4a and p53; hippocampus, 6-MO 5×FAD female mice",great reduction
same,expression of upregulated inflammatory cytokines or chemokines (RT-qPCR),[2]; cortex and hippocampus,largely brought down to nearly normal levels
same,"expression of GM-CSF, RANKL and OPG (RT-qPCR)",[2]; cortex,unaffected
same,trabecular bone mass (Tb. BV/TV),5×FAD mice,more trabecular bone mass was induced in 5×FAD mice than that in WT mice
